Data as given in ChEMBL document CHEMBL3286227, “Guanidinium-based derivatives: searching for new kinase inhibitors” (Eur J Med Chem, 2014).
Activity calls are given as the source filed them. The calls are words filed in the database; no cut-off is given here.

Tests used:
HL-60 [1] = assay: Cell cycle arrest in human HL60 cells assessed as accumulation at S phase at 10 uM after 72 hrs by propidium iodide staining-based flow cytometry (reference value: 16.4 +/- 0.8%); format: functional
HL-60 [2] = assay: Cell cycle arrest in human HL60 cells assessed as accumulation at Gn phase at 25 uM after 48 hrs by propidium iodide staining-based flow cytometry (reference value: 2.49 +/- 0.4%); format: functional
HL-60 [3] = assay: Cell cycle arrest in human HL60 cells assessed as accumulation at G0/G1 phase at 50 uM after 48 hrs by propidium iodide staining-based flow cytometry (reference value: 57.0 +/- 1.0%); format: functional
HL-60 [4] = assay: Cell cycle arrest in human HL60 cells assessed as accumulation at Gn phase at 1 uM after 72 hrs by propidium iodide staining-based flow cytometry (reference value: 2.49 +/- 0.3%); format: functional
HL-60 [5] = assay: Cell cycle arrest in human HL60 cells assessed as accumulation at pre-G1 phase at 10 uM after 72 hrs by propidium iodide staining-based flow cytometry (reference value: 0.14%); format: functional
HL-60 [6] = assay: Induction of apoptosis in human HL60 cells assessed as nuclear fragmentation at 50 uM after 72 hrs by microscopy relative to vehicle-treated control; format: functional, cell-based
HL-60 [7] = assay: Cell cycle arrest in human HL60 cells assessed as accumulation at pre-G1 phase at 1 uM after 72 hrs by propidium iodide staining-based flow cytometry (reference value: 0.14%); format: functional
HL-60 [8] = assay: Cell cycle arrest in human HL60 cells assessed as accumulation at G2/M phase at 10 uM after 48 hrs by propidium iodide staining-based flow cytometry (reference value: 18.4 +/- 1.3%); format: functional
HL-60 [9] = assay: Cell cycle arrest in human HL60 cells assessed as accumulation at G2/M phase at 50 uM after 48 hrs by propidium iodide staining-based flow cytometry (reference value: 18.4 +/- 1.3%); format: functional
HL-60 [10] = assay: Cell cycle arrest in human HL60 cells assessed as accumulation at G2/M phase at 10 uM after 72 hrs by propidium iodide staining-based flow cytometry (reference value: 14.8 +/- 0.7%); format: functional
HL-60 [11] = assay: Cell cycle arrest in human HL60 cells assessed as accumulation at S phase at 50 uM after 48 hrs by propidium iodide staining-based flow cytometry (reference value: 21.5 +/- 1.0%); format: functional
HL-60 [12] = assay: Cell cycle arrest in human HL60 cells assessed as accumulation at G2/M phase at 25 uM after 48 hrs by propidium iodide staining-based flow cytometry (reference value: 18.4 +/- 1.3%); format: functional

## Cl.N=C(N)Nc1ccc(Oc2cccc(NC(=N)Nc3ccc(Cl)c(C(F)(F)F)c3)c2)cc1
HL-60 [1]
  Activity: 14.1%
HL-60 [2]
  Activity: 2.17%
HL-60 [3]
  Activity: 44.6%
HL-60 [4]
  Activity: 3.23%
HL-60 [5]
  Activity: 0.23%
HL-60 [6]
  Activity: Active
HL-60 [7]
  Activity: 0.13%
HL-60 [8]
  Activity: 14.6%
HL-60 [9]
  Activity: 18.6%
HL-60 [10]
  Activity: 18.9%
HL-60 [11]
  Activity: 15.7%
HL-60 [12]
  Activity: 20.2%
